{"source": "patent US20210147811A1", "about": "“METHODS FOR IN VITRO EXPANSION OF ADULT TISSUE STEM CELLS” (CEDARS-SINAI MEDICAL CENTER, priority 2018, published 2021)", "assay_type_in_all_cases": "cell-based", "key": {"[1]": {"tested_on": "freshly isolated murine distal total epithelial cells", "assay": "3D organoid culture of freshly isolated murine distal total epithelial cells", "source_text": "FIG. 1. Experimental design. Preconditioning of donor cells, including addition of small molecules such as ROCK inhibitor, pifithrin α, or combined together, and generation of organoids.\nFIG. 3. […] Addition of the TGF-β inhibitor, SB 431542 to the culture medium increases the % colony forming efficiency of freshly isolated murine lung epithelial cells. Addition of Pifithrin α causes an increase in organoids size, while addition of ROCKi causes an increase in the colony forming efficiency.\nFIG. 13. Effect of p53 and ROCKi inhibition on murine freshly isolated distal total epithelial cells in (+SB431542). Addition of both ROCKi and Pifithrin alpha (in presence of SB431542) increases the colony forming efficiency of freshly isolated murine distal total epithelial cells (isolated from the lung without trachea). […] Pifithrin alpha also causes an increase in the size of the organoids (C). […] The drop in mean diameter of the Pifithrin alpha+ROCKi group is likely due to space constraints because of the large number of organoids per well.\nFurther described herein is a cell culture including a quantity of human stem cells, or stem cell derived cells in a cell culture media including at least one molecule including: a RHO-kinase (ROCK) inhibitor, SMAD inhibitor, and p53 inhibitor. In other embodiments, the RHO-kinase inhibitor is Y27632 and the p53 inhibitor is Pifithrin α. In other embodiments, the stem cells are adult stem cells. In other embodiments, the stem cell derived cells are lung epithelial cells. In various embodiments, the aforementioned inhibitors are at a concentration of 0.1-1 uM, 1-5 uM, 5-10 uM, 10-25 uM, 25-50 uM, or 50 uM or more. In various embodiments, the p53 inhibitor is Pifithrin-alpha. For example, this includes a media formulated as follows: 5 mL FBS, 500 uL ITS (100×), 50 uL Fungizone, 500 uL Pen/Strep (100×), DMEM/F12 up to 50 mL, 5 uL SB431542, Pifithrin-alpha 10 uM, ROCKi (Y-27632 dihydrochloride)—10 uM. Also described herein is a quantity of organoids including cells made by the aforementioned methods. In various embodiments, the organoids include proximal and/or distal cells. In various embodiments, the distal cells are alveolar type II progenitors and/or Scgb1a1 positive club progenitor cells."}, "[2]": {"tested_on": "freshly isolated club cells", "assay": "Organoid culture of lineage labelled murine club cells", "conditions": "GFP+ club cells, in presence of SB431542", "source_text": "FIG. 17. Effect of ROCK and P53 inhibition on lineage labelled murine club cells. GFP^+ club cells were isolated from tamoxifen treated Scgb1a1-CreER/ROSARG mice. Addition of ROCKi (in presence of SB431542) increases the colony forming efficiency of freshly isolated club cells (regional stem cells which maintain certain cell types in the bronchiolar epithelium) whereas addition of Pifithrin alpha (in presence of SB431542) increases the size of Scgb1a1-derived organoids.\n(§1) Distal progenitor cells were cultured as 3D organoids for 14 days in presence of Pifithrin-alpha, ROCKi and SB431542 followed by culture for 7 days in media without all three inhibitors. […] Addition of ROCKi (in presence of SB431542) increases the colony forming efficiency of freshly isolated club cells (regional stem cells which maintain certain cell types in the bronchiolar epithelium) whereas addition of Pifithrin alpha (in presence of SB431542) increases the size of Scgb1a1-derived organoids. Addition of both ROCKi (in presence of SB431542) increases the colony forming efficiency of freshly isolated murine proximal total epithelial cells (isolated from the murine trachea)."}, "distal progenitor cells": {"tested_on": "distal progenitor cells", "assay": "Differentiation potential of distal progenitors after 3D organoid culture with inhibitors", "conditions": "14 days with Pifithrin-alpha, ROCKi and SB431542, then 7 days without inhibitors, PDPN and SPC staining", "method": "FIG. 16. […] Distal progenitor cells were cultured as 3D organoids for 14 days in presence of Pifithrin-alpha, ROCKi and SB431542 followed by culture for 7 days in media without all three inhibitors. […] DAPI (blue) is a nuclear stain.\nas §1"}, "[3]": {"conditions": "freshly isolated cells, in presence of SB431542 (FIG. 13)"}}, "data": [{"smiles": "Cc1ccc(C(=O)Cn2c3c(sc2=N)CCCC3)cc1", "note": "[Pifithrin α]", "values": [{"measurement": "colony forming efficiency", "setting": "[1]; [3]", "value": "increases"}, {"measurement": "size of the organoids (mean diameter)", "setting": "[1]; [3]", "value": "increase"}, {"measurement": "survival and proliferation of the stem cells (inferred from CFE and organoid size)", "setting": "[1]; freshly isolated distal cells, FIG. 13", "value": "increase survival and proliferation"}, {"measurement": "organoids size", "setting": "[1]; freshly isolated murine lung epithelial cells (FIG. 3)", "value": "increase"}, {"measurement": "size of Scgb1a1-derived organoids", "setting": "[2]", "value": "increases"}, {"measurement": "differentiation potential", "setting": "distal progenitor cells; listed as Pifithrin alpha", "value": "do not alter"}, {"measurement": "differentiation potential", "setting": "distal progenitor cells; listed as Pifithrin-alpha", "value": "did not alter"}]}]}
